Test results from ChEMBL document CHEMBL1201862, “PubChem BioAssay data set” (2004).
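The compound was tested at five concentrations on cells cultured in 96-well plates, with a 48-hour exposure period. GI50: concentration for 50% inhibition of growth.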 Active and inactive are the calls of the source. Rule as the data show it: active = GI50 up to about 1.1 µM and inactive = higher.

Key:
Test in all cases: NCI-60 cell line screen, 48 h
Hs-578T = test system: Hs-578T
A498 = test system: A498
KM12 = test system: KM12
K562 = test system: K562
RPMI-8226 = test system: RPMI-8226
TK-10 = test system: TK-10
SK-MEL-5 = test system: SK-MEL-5
A549 = test system: A549
OVCAR-4 = test system: OVCAR-4
SF-268 = test system: SF-268
OVCAR-8 = test system: OVCAR-8
PC-3 = test system: PC-3
HOP-62 = test system: HOP-62
HCC 2998 = test system: HCC 2998
MDA-MB-435 = test system: MDA-MB-435
OVCAR-5 = test system: OVCAR-5
LOX IMVI = test system: LOX IMVI
IGROV-1 = test system: IGROV-1
NCI-H522 = test system: NCI-H522
SW-620 = test system: SW-620

Row | SMILES | GI50 (Hs-578T) | GI50 (A498) | GI50 (KM12) | GI50 (K562) | GI50 (RPMI-8226) | GI50 (TK-10) | GI50 (SK-MEL-5) | GI50 (A549) | GI50 (OVCAR-4) | GI50 (SF-268) | GI50 (OVCAR-8) | GI50 (PC-3) | GI50 (HOP-62) | GI50 (HCC 2998) | GI50 (MDA-MB-435) | GI50 (OVCAR-5) | GI50 (LOX IMVI) | GI50 (IGROV-1) | GI50 (NCI-H522) | GI50 (SW-620)
1 | C[N+]12C=CC=C1C(N1CCCC1)c1scc(-c3ccc(Br)cc3)c12 (configuration not stated) | 1.98 µM (inactive) | 47.2 µM (inactive) | 12.1 µM (inactive) | 6.7 µM (inactive) | 3.01 µM (inactive) | 91.2 µM (inactive) | 4.68 µM (inactive) | 74.1 µM (inactive) | 35.3 µM (inactive) | 3.15 µM (inactive) | 4.11 µM (inactive) | 21 µM (inactive) | 14.8 µM (inactive) | 12.4 µM (inactive) | 24 µM (inactive) | 42.1 µM (inactive) | 25.5 µM (inactive) | 4.58 µM (inactive) | 1.64 µM (inactive) | 41.2 µM (inactive)
2 | COc1ccc(OC)c(CNc2ccc(C(=O)O)cc2)c1 | > 100 µM (inactive) | > 100 µM (inactive) | > 100 µM (inactive) | > 100 µM (inactive) | > 100 µM (inactive) | > 100 µM (inactive) | > 100 µM (inactive) | > 100 µM (inactive) | > 100 µM (inactive) | > 100 µM (inactive) | > 100 µM (inactive) | > 100 µM (inactive) | – | > 100 µM (inactive) | > 100 µM (inactive) | > 100 µM (inactive) | > 100 µM (inactive) | > 100 µM (inactive) | > 100 µM (inactive) | > 100 µM (inactive)
3 | CC1=C2C(=O)c3ccccc3C(=O)[C@H]2[C@H]2CCO[C@H]2O1 | 41.7 µM (inactive) | > 100 µM (inactive) | 24.5 µM (inactive) | 27.4 µM (inactive) | 24.4 µM (inactive) | 28.5 µM (inactive) | 15.6 µM (inactive) | 32.2 µM (inactive) | 19.5 µM (inactive) | 17.7 µM (inactive) | 20.4 µM (inactive) | 30.3 µM (inactive) | 21.3 µM (inactive) | 19.4 µM (inactive) | 20.7 µM (inactive) | 23.7 µM (inactive) | 22.3 µM (inactive) | 14.2 µM (inactive) | 16.3 µM (inactive) | 21.1 µM (inactive)
4 | CN(C)C(=S)/N=c1\ssc(=S)n1Cc1ccccc1 | 0.193 µM (active) | 0.51 µM (active) | 0.24 µM (active) | 0.206 µM (active) | 0.785 µM (active) | 1.45 µM (inactive) | 0.217 µM (active) | 0.78 µM (active) | 3.42 µM (inactive) | 1.82 µM (inactive) | 0.51 µM (active) | 0.249 µM (active) | 0.546 µM (active) | 0.57 µM (active) | 0.0337 µM (active) | 20 µM (inactive) | 0.455 µM (active) | 0.632 µM (active) | 0.063 µM (active) | 0.201 µM (active)
5 | N#Cc1c(-c2ccccc2)cc(Nc2ccc(F)cc2)n2c1nc1ccccc12 | < 0.01 µM (active) | 2.74 µM (inactive) | 3.52 µM (inactive) | 5.61 µM (inactive) | 3.56 µM (inactive) | 3.55 µM (inactive) | 1.24 µM (inactive) | 2.28 µM (inactive) | 4.62 µM (inactive) | 3.72 µM (inactive) | 3.12 µM (inactive) | 1.83 µM (inactive) | 2.83 µM (inactive) | 3.75 µM (inactive) | 3.11 µM (inactive) | 3.16 µM (inactive) | 3.33 µM (inactive) | 4.12 µM (inactive) | 1.95 µM (inactive) | 4.08 µM (inactive)
6 | CN/C(=N\N=C1/C(=O)Nc2ccccc21)SCC(=O)c1ccc(Br)cc1 | 10.9 µM (inactive) | 17.4 µM (inactive) | 7.53 µM (inactive) | 20.5 µM (inactive) | 5.58 µM (inactive) | 15 µM (inactive) | 22.9 µM (inactive) | 5.01 µM (inactive) | 21.5 µM (inactive) | 18.6 µM (inactive) | 8.53 µM (inactive) | 10.3 µM (inactive) | 5.19 µM (inactive) | 5.26 µM (inactive) | 9.57 µM (inactive) | 32 µM (inactive) | 8.38 µM (inactive) | 31.1 µM (inactive) | 15.5 µM (inactive) | 2.42 µM (inactive)
7 | COc1cc(/C=C/C(=O)N[C@@H]2C(=O)N3[C@@H]2SC(C)(C)[C@@H]3C(=O)O)cc(OC)c1OC | > 100 µM (inactive) | > 100 µM (inactive) | > 100 µM (inactive) | > 100 µM (inactive) | > 100 µM (inactive) | > 100 µM (inactive) | > 100 µM (inactive) | > 100 µM (inactive) | > 100 µM (inactive) | > 100 µM (inactive) | > 100 µM (inactive) | > 100 µM (inactive) | – | > 100 µM (inactive) | > 100 µM (inactive) | > 100 µM (inactive) | > 100 µM (inactive) | – | > 100 µM (inactive) | > 100 µM (inactive)
